Patent publication US20230210819A1, “USE OF BENZISOSELAZOLE DERIVATIVE FOR ANTI-CORONAVIRUS AND CONTROL OF INTERSTITIAL LUNG DISEASE (ILD) RELATED TO CORONAVIRUS” (SHANGHAI YUANXI MEDICINE CORP., priority 2020, published 2023)

What was measured:
Assay type in all cases: in vivo, C57 mice
[1] = test system: bleomycin-induced mouse lung disease model; assay: Lung and spleen coefficients, 7-d modeling
Protocol: (§1) Animals of 7-d modeling were randomly divided into 7 groups according to the table below, 6 animals per control group and 12 animals per test group.
(§2) Drug administration began 24 h or 7 d after modeling. […] The day of the first administration was counted as D1, the next day as D2, and so forth. The normal groups and Model groups were given 200 µL of normal saline daily by gavage administration.
Method: after being euthanized, the animals were dissected, and the heart, liver, spleen, lung and kidney were weighed.
(§3) In this experiment, 105 C57 mice were randomly selected and subjected to organ drip administration of a single dose of bleomycin at 2.5 mg/kg for 24 h or 7 d for induction. After 7 days of induction, 3 model mice were randomly selected and dissected to determine whether the modeling was successful. After modeling, the survival of the mice was recorded. The living states of the mice were observed and their body weight was measured at a fixed time.
A normal control group comprised 6 mice.

[2] = test system: bleomycin-induced mouse lung disease model; assay: Blood gas analysis, 24-h modeling
Protocol: (§4) Animals of 24-h modeling were randomly divided into 5 groups according to the table below, 3 animals per control group and 5 animals per test group.
as §2
(§5) 1. After being anaesthetized, a mouse was fixed to a board in a supine position.
(§6) 2. After the skin was disinfected with alcohol, a midline cut of about 1.5 cm was made downward in the skin of the neck. The connective tissue between the sternohyoid muscle and the stemothyroid muscle was separated along the anterior border of the sternomastoid muscle with a tissue forceps. The pulsating common carotid artery could be seen on the deep right side of the trachea. A common carotid artery of about 1.5 cm in length was separated. The distal end was ligated with silk thread, and the proximal end was clipped with an artery clip and threaded with a silk thread for later use. The mouse board was placed under a dissecting microscope, and a V-shaped centripetal incision was gently made in a site near the distal end of the artery with a microscopy scissor. A PE microcatheter was inserted into the artery and fixed by making a knot with silk thread. The artery clip was removed, and 0.1-0.2 mL of blood was collected with a 1 mL syringe. The proximal end was clipped with an artery clip, and the syringe was removed. The blood was immediately analyzed on an AbboTTi-STAT blood gas microanalyzer.
(§7) In a blood gas analysis, the H^+ concentration in the blood and gases (mainly CO2 and O2) dissolved in the blood can be determined to directly reflect the function of pulmonary ventilation and the acid-base balance state. They are used to determine in the organism whether the acid-base balance is upset, whether anoxia occurred, the level of anoxia, and so forth.

[3] = test system: cytokines in bronchoalveolar lavage fluid; assay: Inflammatory factor assay of bronchoalveolar lavage fluid by ELISA; settings: for Percent reduction in IFN-γ in bronchoalveolar lavage fluid with respect to the Model group / Percent reduction in PPAR-y in bronchoalveolar lavage fluid with respect to the Model group: negative = increase; for IL-1β in bronchoalveolar lavage fluid / IL-2 in bronchoalveolar lavage fluid / IL-6 in bronchoalveolar lavage fluid / TNF-α in bronchoalveolar lavage fluid: second half of table, head taken from the 24th table
Protocol: as §1, §2
After the mouse was fixed, its trachea and chest cavity were exposed, and the trachea and the esophagus were bluntly separated with an ophthalmic curved forceps. Two sutures were made between the trachea and the esophagus. An intravenous trocar was inserted into the trachea and ligated at the site where it entered the trachea and at its distal end. A 1 mL syringe was connected to draw in 1 mL of pre-cooled PBS and infuse it into the lung tissue. Significant filling in the lung could be seen with the naked eye. The infusion was stopped for 10 s and withdrawal was performed. The infusion/withdrawal cycle was repeated 3 times. The withdrawn BALF was transferred to a clean EP tube and centrifuged at 4° C., and the supernatant was collected and preserved at -80° C. The bronchoalveolar lavage fluid was assayed for inflammatory factors by ELISA.

[4] = Body weight, bleomycin-induced mice, 24-h modeling; settings: BS 90 mg/kg gavage daily
Protocol: as §4, §2
All the animals were observed once daily during the experiment for death or dying, feces, ingestion, mental state and behavior and activity. Abnormalities were recorded in time. All the animals were weighed once before grouping and once before each dose.
as §3
A normal control group comprised 3 mice.

[5] = test system: bleomycin-induced mouse lung disease model; assay: Blood gas analysis, 7-d modeling; settings: for BEect / HCO3^- / PCO2: arterial blood after administration ended
Protocol: as §1, §2, §5, §6, §7

[6] = BS 90 mg/kg gavage daily, arterial blood after administration ended

O=c1c2ccccc2[se]n1CCCCn1[se]c2ccccc2c1=O [BS, 1,4-[bis(1,2-benzisoselenazol-3(2H)-one)]butane]
Effect on lung coefficient (in words) ([1]; BS 90 mg/kg or 180 mg/kg, effect better than that of Dex): significantly reduce increases in the lung coefficient | Effect on spleen coefficient (in words) ([1]; BS 180 mg/kg, effect better than that of Dex): significantly decrease the spleen coefficient | Lung coefficient ([1]; BSH: BS 180 mg/kg gavage daily): 0.88±0.05% | Spleen coefficient ([1]; BSH: BS 180 mg/kg gavage daily): 0.39±0.02% | Lung coefficient ([1]; BSL: BS 36 mg/kg gavage daily): 0.97±0.07% | Spleen coefficient ([1]; BSL: BS 36 mg/kg gavage daily): 0.40±0.07% | Lung coefficient ([1]; BSM: BS 90 mg/kg gavage daily): 0.90±0.09% | Spleen coefficient ([1]; BSM: BS 90 mg/kg gavage daily): 0.40±0.05% | BEect [2, 6]: -9.40 ± 1.14 mmol/L | HCO3^- [2, 6]: 30.00 ± 1.20 mmol/L | PCO2 [2, 6]: 30.84±1.21 mmHg | Effect on blood gas analysis (in words) ([2]; BS 90 mg/kg, better than Dex (1-1.5 mg/kg) in general): significant improvements to the function of pulmonary ventilation and the acid-base balance states | IFN-γ in bronchoalveolar lavage fluid ([3]; BSH: BS 180 mg/kg gavage daily): 55.70 ± 4.27 pg/mL | NF-κB in bronchoalveolar lavage fluid ([3]; BSH: BS 180 mg/kg gavage daily): 759.34 ± 104.53 pg/mL | PPAR-γ in bronchoalveolar lavage fluid ([3]; BSH: BS 180 mg/kg gavage daily): 237.75 ± 24.92 pg/mL | Percent reduction in IL-1β in bronchoalveolar lavage fluid with respect to the Model group ([3]; BSH: BS 180 mg/kg gavage daily): 61.70% | Percent reduction in IL-2 in bronchoalveolar lavage fluid with respect to the Model group ([3]; BSH: BS 180 mg/kg gavage daily): 10.87% | Percent reduction in IL-6 in bronchoalveolar lavage fluid with respect to the Model group ([3]; BSH: BS 180 mg/kg gavage daily): 67.10% | Percent reduction in NF-κB in bronchoalveolar lavage fluid with respect to the Model group ([3]; BSH: BS 180 mg/kg gavage daily): 17.22% | Percent reduction in TGF-β in bronchoalveolar lavage fluid with respect to the Model group ([3]; BSH: BS 180 mg/kg gavage daily): 14.53% | Percent reduction in TNF-α in bronchoalveolar lavage fluid with respect to the Model group ([3]; BSH: BS 180 mg/kg gavage daily): 22.95% | TGF-β in bronchoalveolar lavage fluid ([3]; BSH: BS 180 mg/kg gavage daily): 161.82 ± 20.96 pg/mL | Percent reduction in IFN-γ in bronchoalveolar lavage fluid with respect to the Model group ([3]; BSH: BS 180 mg/kg gavage daily): -67.81% | Percent reduction in PPAR-y in bronchoalveolar lavage fluid with respect to the Model group ([3]; BSH: BS 180 mg/kg gavage daily): -9.52% | IL-1β in bronchoalveolar lavage fluid ([3]; BSH: BS 180 mg/kg gavage daily): 4.78 ± 0.69 pg/mL | IL-2 in bronchoalveolar lavage fluid ([3]; BSH: BS 180 mg/kg gavage daily): 40.37 ± 5.25 pg/mL | IL-6 in bronchoalveolar lavage fluid ([3]; BSH: BS 180 mg/kg gavage daily): 9.47 ± 1.96 pg/mL | TNF-α in bronchoalveolar lavage fluid ([3]; BSH: BS 180 mg/kg gavage daily): 43.24 ± 7.14 pg/mL | Inhibitory effect on inflammatory cells and proinflammatory factors (NF-κB, TNF-α, IL-1β, IL-2, IL-6) compared to Dex, in words ([3]; BSH: BS 180 mg/kg, used alone): greater inhibitory effect | IFN-γ in bronchoalveolar lavage fluid ([3]; BSL: BS 36 mg/kg gavage daily): 38.74 ± 4.74 pg/mL | NF-κB in bronchoalveolar lavage fluid ([3]; BSL: BS 36 mg/kg gavage daily): 867.20 ± 174.12 pg/mL | PPAR-γ in bronchoalveolar lavage fluid ([3]; BSL: BS 36 mg/kg gavage daily): 38.74 ± 4.74 pg/mL | Percent reduction in IL-1β in bronchoalveolar lavage fluid with respect to the Model group ([3]; BSL: BS 36 mg/kg gavage daily): 17.88% | Percent reduction in IL-2 in bronchoalveolar lavage fluid with respect to the Model group ([3]; BSL: BS 36 mg/kg gavage daily): 4.03% | Percent reduction in IL-6 in bronchoalveolar lavage fluid with respect to the Model group ([3]; BSL: BS 36 mg/kg gavage daily): 49.92% | Percent reduction in NF-κB in bronchoalveolar lavage fluid with respect to the Model group ([3]; BSL: BS 36 mg/kg gavage daily): 5.46% | Percent reduction in TGF-β in bronchoalveolar lavage fluid with respect to the Model group ([3]; BSL: BS 36 mg/kg gavage daily): 0.42% | Percent reduction in TNF-α in bronchoalveolar lavage fluid with respect to the Model group ([3]; BSL: BS 36 mg/kg gavage daily): 7.38% | TGF-β in bronchoalveolar lavage fluid ([3]; BSL: BS 36 mg/kg gavage daily): 188.54 ± 24.55 pg/mL | Percent reduction in IFN-γ in bronchoalveolar lavage fluid with respect to the Model group ([3]; BSL: BS 36 mg/kg gavage daily): -16.73% | Percent reduction in PPAR-y in bronchoalveolar lavage fluid with respect to the Model group ([3]; BSL: BS 36 mg/kg gavage daily): -5.79% | IL-1β in bronchoalveolar lavage fluid ([3]; BSL: BS 36 mg/kg gavage daily): 10.26 ± 1.29 pg/mL | IL-2 in bronchoalveolar lavage fluid ([3]; BSL: BS 36 mg/kg gavage daily): 43.46 ± 7.51 pg/mL | IL-6 in bronchoalveolar lavage fluid ([3]; BSL: BS 36 mg/kg gavage daily): 14.41 ± 1.33 pg/mL | TNF-α in bronchoalveolar lavage fluid ([3]; BSL: BS 36 mg/kg gavage daily): 51.98 ± 4.37 pg/mL | IFN-γ in bronchoalveolar lavage fluid ([3]; BSM: BS 90 mg/kg gavage daily): 53.31 ± 5.29 pg/mL | NF-κB in bronchoalveolar lavage fluid ([3]; BSM: BS 90 mg/kg gavage daily): 824.16 ± 155.14 pg/mL | Percent reduction in IL-1β in bronchoalveolar lavage fluid with respect to the Model group ([3]; BSM: BS 90 mg/kg gavage daily): 47.93% | Percent reduction in IL-2 in bronchoalveolar lavage fluid with respect to the Model group ([3]; BSM: BS 90 mg/kg gavage daily): 9.81% | Percent reduction in IL-6 in bronchoalveolar lavage fluid with respect to the Model group ([3]; BSM: BS 90 mg/kg gavage daily): 54.37% | Percent reduction in NF-κB in bronchoalveolar lavage fluid with respect to the Model group ([3]; BSM: BS 90 mg/kg gavage daily): 10.15% | Percent reduction in TGF-β in bronchoalveolar lavage fluid with respect to the Model group ([3]; BSM: BS 90 mg/kg gavage daily): 2.87% | Percent reduction in TNF-α in bronchoalveolar lavage fluid with respect to the Model group ([3]; BSM: BS 90 mg/kg gavage daily): 11.68% | TGF-β in bronchoalveolar lavage fluid ([3]; BSM: BS 90 mg/kg gavage daily): 178.54 ± 14.64 pg/mL | Percent reduction in IFN-γ in bronchoalveolar lavage fluid with respect to the Model group ([3]; BSM: BS 90 mg/kg gavage daily): -60.63% | Percent reduction in PPAR-y in bronchoalveolar lavage fluid with respect to the Model group ([3]; BSM: BS 90 mg/kg gavage daily): -6.09% | IL-1β in bronchoalveolar lavage fluid ([3]; BSM: BS 90 mg/kg gavage daily): 6.50 ± 1.38 pg/mL | IL-2 in bronchoalveolar lavage fluid ([3]; BSM: BS 90 mg/kg gavage daily): 40.84 ± 3.88 pg/mL | IL-6 in bronchoalveolar lavage fluid ([3]; BSM: BS 90 mg/kg gavage daily): 13.13 ± 1.03 pg/mL | TNF-α in bronchoalveolar lavage fluid ([3]; BSM: BS 90 mg/kg gavage daily): 49.57 ± 5.97 pg/mL | Body weight ([4]; D1): 20.34 ± 1.01 g | Body weight ([4]; D7): 19.50 ± 1.35 g | Body weight ([4]; D14): 18.84 ± 1.70 g | Body weight ([4]; D21): 18.52 ± 1.75 g | Body weight ([4]; D28): 18.30 ± 1.60 g | Body weight ([4]; D35): 18.02 ± 1.75 g | Body weight decreased by ([4]; day 1 to day 35): 13.58% | Effect on blood gas analysis (in words) ([5]; BS 90 mg/kg and 180 mg/kg, better than Dex (1-1.5 mg/kg) in general): significant improvements to the function of pulmonary ventilation and the acid-base balance states | BEect ([5]; BSH: BS 180 mg/kg gavage daily): -8.00 ± 1.10 mmol/L | HCO3^- ([5]; BSH: BS 180 mg/kg gavage daily): 27.82 ± 0.91 mmol/L | PCO2 ([5]; BSH: BS 180 mg/kg gavage daily): 32.82±2.02 mmHg | BEect ([5]; BSL: BS 36 mg/kg gavage daily): -15.67 ± 4.13 mmol/L | HCO3^- ([5]; BSL: BS 36 mg/kg gavage daily): 22.30 ± 1.51 mmol/L | PCO2 ([5]; BSL: BS 36 mg/kg gavage daily): 27.45±1.35 mmHg | BEect ([5]; BSM: BS 90 mg/kg gavage daily): -9.83 ± 0.75 mmol/L | HCO3^- ([5]; BSM: BS 90 mg/kg gavage daily): 30.57 ± 1.42 mmol/L | PCO2 ([5]; BSM: BS 90 mg/kg gavage daily): 31.62±1.34 mmHg
